Earlier results in patent publication US20200040275A1, “AVIATION FUEL WITH A RENEWABLE OXYGENATE” (Swift Fuels, LLC, priority 2014, published 2020).

Legend:
[1] = SDS data from third-party compliance reports

SMILES | LD50 (rat, oral) (rat) [mg/kg] | OSHA Hazards [1] | water solubility [g/100 g]
CC(C)c1ccc(N)cc1 (single isomer, unassigned) [Cumidine, 4-isopropylaniline] | 757 | Irritant. Causes respiratory | –
CCOC(C)(C)C [ETBE, ethyl tert-butyl ether] | – | Irritant | 1.2
Cc1cccc(N)c1 [m-Toluidine] | – | Toxic. Causes cyanosis. | –
